Results from publication PMC5578373, “Inhibitory Kappa B Kinase α (IKKα) Inhibitors That Recapitulate Their Selectivity in Cells against Isoform-Related Biomarkers” (Journal of Medicinal Chemistry, 2017).
Entries after “also recorded” stand apart in the source; their conditions may differ.

What was measured:
HIPK1(h) = target: T1, HIPK1(h) (Homo sapiens, UniProt Q86Z02); experiment: Millipore Kinase Profiler, single concentration; type: biochemical; details: duplicate assay points, read-out: % residual activity
T1 construct: purchased Millipore KinaseProfiler
Excerpt: (§1) Kinase profiling of compound 48 was outsourced to Millipore, specifically the Kinase Profiler Customer Service for single concentration studies using duplicate assay points.

EphB4(h) = target: T2, EphB4(h) (Homo sapiens, UniProt P54760); experiment: Millipore Kinase Profiler, single concentration; type: biochemical; details: duplicate assay points, read-out: % residual activity
T2 construct: purchased Millipore KinaseProfiler
Excerpt: as §1

GSK3β(h) = target: T3, GSK3β(h) (Homo sapiens, UniProt P49841); experiment: Millipore Kinase Profiler, single concentration; type: biochemical; details: duplicate assay points, read-out: % residual activity
T3 construct: purchased Millipore KinaseProfiler
Excerpt: as §1

MAPKAP-K2(h) = target: T4, MAPKAP-K2(h) (Homo sapiens, UniProt P49137); experiment: Millipore Kinase Profiler, single concentration; type: biochemical; details: duplicate assay points, read-out: % residual activity
T4 construct: purchased Millipore KinaseProfiler
Excerpt: as §1

ZAP-70(h) = target: T5, ZAP-70(h) (Homo sapiens, UniProt P43403); experiment: Millipore Kinase Profiler, single concentration; type: biochemical; details: duplicate assay points, read-out: % residual activity
T5 construct: purchased Millipore KinaseProfiler
Excerpt: as §1

PKD2(h) = target: T6, PKD2(h) (Homo sapiens, UniProt Q9BZL6); experiment: Millipore Kinase Profiler, single concentration; type: biochemical; details: duplicate assay points, read-out: % residual activity
T6 construct: purchased Millipore KinaseProfiler
Excerpt: as §1

EGFR(h) = target: T7, EGFR(h) (Homo sapiens, UniProt P00533); experiment: Millipore Kinase Profiler, single concentration; type: biochemical; details: duplicate assay points, read-out: % residual activity
T7 construct: purchased Millipore KinaseProfiler
Excerpt: as §1

CaMKI(h) = target: T8, CaMKI(h) (Homo sapiens, UniProt Q14012); experiment: Millipore Kinase Profiler, single concentration; type: biochemical; details: duplicate assay points, read-out: % residual activity
T8 construct: purchased Millipore KinaseProfiler
Excerpt: as §1

ROCK-II(h) = target: T9, ROCK-II(h) (Homo sapiens, UniProt O75116); experiment: Millipore Kinase Profiler, single concentration; type: biochemical; details: duplicate assay points, read-out: % residual activity
T9 construct: purchased Millipore KinaseProfiler
Excerpt: as §1

Fes(h) = target: T10, Fes(h) (Homo sapiens, UniProt P07332); experiment: Millipore Kinase Profiler, single concentration; type: biochemical; details: duplicate assay points, read-out: % residual activity
T10 construct: purchased Millipore KinaseProfiler
Excerpt: as §1

MST2(h) = target: T11, MST2(h) (Homo sapiens, UniProt Q13188); experiment: Millipore Kinase Profiler, single concentration; type: biochemical; details: duplicate assay points, read-out: % residual activity
T11 construct: purchased Millipore KinaseProfiler
Excerpt: as §1

CaMKIV(h) = target: T12, CaMKIV(h) (Homo sapiens, UniProt Q16566); experiment: Millipore Kinase Profiler, single concentration; type: biochemical; details: duplicate assay points, read-out: % residual activity
T12 construct: purchased Millipore KinaseProfiler
Excerpt: as §1

NEK2(h) = target: T13, NEK2(h) (Homo sapiens, UniProt P51955); experiment: Millipore Kinase Profiler, single concentration; type: biochemical; details: duplicate assay points, read-out: % residual activity
T13 construct: purchased Millipore KinaseProfiler
Excerpt: as §1

PDGFRβ(h) = target: T14, PDGFRβ(h) (Homo sapiens, UniProt P09619); experiment: Millipore Kinase Profiler, single concentration; type: biochemical; details: duplicate assay points, read-out: % residual activity
T14 construct: purchased Millipore KinaseProfiler
Excerpt: as §1

MEK1(h) = target: T15, MEK1(h) (Homo sapiens, UniProt Q02750); experiment: Millipore Kinase Profiler, single concentration; type: biochemical; details: duplicate assay points, read-out: % residual activity
T15 construct: purchased Millipore KinaseProfiler
Excerpt: as §1

PRK2(h) = target: T16, PRK2(h) (Homo sapiens, UniProt Q16513); experiment: Millipore Kinase Profiler, single concentration; type: biochemical; details: duplicate assay points, read-out: % residual activity
T16 construct: purchased Millipore KinaseProfiler
Excerpt: as §1

FGFR3(h) = target: T17, FGFR3(h) (Homo sapiens, UniProt P22607); experiment: Millipore Kinase Profiler, single concentration; type: biochemical; details: duplicate assay points, read-out: % residual activity
T17 construct: purchased Millipore KinaseProfiler
Excerpt: as §1

JAK2(h) = target: T18, JAK2(h) (Homo sapiens, UniProt O60674); experiment: Millipore Kinase Profiler, single concentration; type: biochemical; details: duplicate assay points, read-out: % residual activity
T18 construct: purchased Millipore KinaseProfiler
Excerpt: as §1

CHK2(h) = target: T19, CHK2(h) (Homo sapiens, UniProt O96017); experiment: Millipore Kinase Profiler, single concentration; type: biochemical; details: duplicate assay points, read-out: % residual activity
T19 construct: purchased Millipore KinaseProfiler
Excerpt: as §1

LIMK1(h) = target: T20, LIMK1(h) (Homo sapiens, UniProt P53667); experiment: Millipore Kinase Profiler, single concentration; type: biochemical; details: duplicate assay points, read-out: % residual activity
T20 construct: purchased Millipore KinaseProfiler
Excerpt: as §1

AMPKα1(h) = target: T21, AMPKα1(h) (Homo sapiens, UniProt Q13131); experiment: Millipore Kinase Profiler, single concentration; type: biochemical; details: duplicate assay points, read-out: % residual activity
T21 construct: purchased Millipore KinaseProfiler
Excerpt: as §1

Rsk1(h) = target: T22, Rsk1(h) (Homo sapiens, UniProt Q15418); experiment: Millipore Kinase Profiler, single concentration; type: biochemical; details: duplicate assay points, read-out: % residual activity
T22 construct: purchased Millipore KinaseProfiler
Excerpt: as §1

CK2(h) = target: T23, CK2(h) (Homo sapiens, UniProt P68400); experiment: Millipore Kinase Profiler, single concentration; type: biochemical; details: duplicate assay points, read-out: % residual activity
T23 construct: purchased Millipore KinaseProfiler
Excerpt: as §1

CK1δ(h) = target: T24, CK1δ(h) (Homo sapiens, UniProt P48730); experiment: Millipore Kinase Profiler, single concentration; type: biochemical; details: duplicate assay points, read-out: % residual activity
T24 construct: purchased Millipore KinaseProfiler
Excerpt: as §1

CDK2/cyclinA(h) = target: T25, CDK2/cyclinA(h) (Homo sapiens, UniProt P24941); experiment: Millipore Kinase Profiler, single concentration; type: biochemical; details: duplicate assay points, read-out: % residual activity
T25 construct: purchased Millipore KinaseProfiler
Excerpt: as §1

PKBα(h) = target: T26, PKBα(h) (Homo sapiens, UniProt P31749); experiment: Millipore Kinase Profiler, single concentration; type: biochemical; details: duplicate assay points, read-out: % residual activity
T26 construct: purchased Millipore KinaseProfiler
Excerpt: as §1

cSRC(h) = target: T27, cSRC(h) (Homo sapiens, UniProt P12931); experiment: Millipore Kinase Profiler, single concentration; type: biochemical; details: duplicate assay points, read-out: % residual activity
T27 construct: purchased Millipore KinaseProfiler
Excerpt: as §1

TrkB(h) = target: T28, TrkB(h) (Homo sapiens, UniProt Q16620); experiment: Millipore Kinase Profiler, single concentration; type: biochemical; details: duplicate assay points, read-out: % residual activity
T28 construct: purchased Millipore KinaseProfiler
Excerpt: as §1

[1] = system: IKKβ-dependent p65 (Ser536) phosphorylation in U2OS cells; experiment: TNFα-induced p65 (Ser536) phosphorylation in U2OS cells, Western blot; type: cell-based, human; details: highest concentration 100 μM, TNF-α (10 ng/mL) 30 min
Experimental: Two IKKβ-dependent readouts were selected to assess selectivity over IKKβ. First, TNFα stimulates IκBα degradation through activation of IKKβ and if IKKβ is inhibited, then a band corresponding to the IκBα protein should be evident by Western analysis. Second, IKKβ phosphorylates p65 on Ser536, which can also be assessed by Western blot analysis. Only at the highest concentration (100 μM) of 48 was IκBα degradation and p65 (Ser536) phosphorylation inhibited (Figure 9b). Even at this high concentration, these effects were not apparent following pretreatment with 47 (Figure 10b).
(§2) Figure 9 Effect of compound 48 on (a) FCS-stimulated noncanonical and (b) TNF-α-induced canonical NF-kB activation in U2OS cells. […] Whole cell lysate were prepared, separated by SDS-PAGE, and assessed for (a) inhibition of p100 phosphorylation (Ser866/870) and (b) IkB-α and p-p65 (Ser536) status. […]
as §2, with “10” for “9”, “47” for “48”
Whole cell lysates were prepared from U2OS and status of IκBα, p65, p-p65 (Ser536), and p-p100 (Ser 866/870) assessed by Western blotting as described in Mackenzie et al. (2007).[46]

T26 sequence (P31749 whole entry): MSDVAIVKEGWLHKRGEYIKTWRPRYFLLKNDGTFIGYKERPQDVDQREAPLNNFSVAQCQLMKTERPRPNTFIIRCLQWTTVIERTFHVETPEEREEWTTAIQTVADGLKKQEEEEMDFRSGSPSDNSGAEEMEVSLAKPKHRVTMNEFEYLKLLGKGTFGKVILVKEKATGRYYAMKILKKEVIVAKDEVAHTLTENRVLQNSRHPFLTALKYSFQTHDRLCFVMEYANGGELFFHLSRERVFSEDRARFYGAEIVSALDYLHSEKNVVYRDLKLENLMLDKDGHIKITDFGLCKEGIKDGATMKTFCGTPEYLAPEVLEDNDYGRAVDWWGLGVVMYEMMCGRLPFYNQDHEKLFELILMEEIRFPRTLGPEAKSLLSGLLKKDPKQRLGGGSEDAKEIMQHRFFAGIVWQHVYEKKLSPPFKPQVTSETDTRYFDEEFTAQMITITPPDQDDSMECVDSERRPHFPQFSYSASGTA
T16 sequence (Q16513 whole entry): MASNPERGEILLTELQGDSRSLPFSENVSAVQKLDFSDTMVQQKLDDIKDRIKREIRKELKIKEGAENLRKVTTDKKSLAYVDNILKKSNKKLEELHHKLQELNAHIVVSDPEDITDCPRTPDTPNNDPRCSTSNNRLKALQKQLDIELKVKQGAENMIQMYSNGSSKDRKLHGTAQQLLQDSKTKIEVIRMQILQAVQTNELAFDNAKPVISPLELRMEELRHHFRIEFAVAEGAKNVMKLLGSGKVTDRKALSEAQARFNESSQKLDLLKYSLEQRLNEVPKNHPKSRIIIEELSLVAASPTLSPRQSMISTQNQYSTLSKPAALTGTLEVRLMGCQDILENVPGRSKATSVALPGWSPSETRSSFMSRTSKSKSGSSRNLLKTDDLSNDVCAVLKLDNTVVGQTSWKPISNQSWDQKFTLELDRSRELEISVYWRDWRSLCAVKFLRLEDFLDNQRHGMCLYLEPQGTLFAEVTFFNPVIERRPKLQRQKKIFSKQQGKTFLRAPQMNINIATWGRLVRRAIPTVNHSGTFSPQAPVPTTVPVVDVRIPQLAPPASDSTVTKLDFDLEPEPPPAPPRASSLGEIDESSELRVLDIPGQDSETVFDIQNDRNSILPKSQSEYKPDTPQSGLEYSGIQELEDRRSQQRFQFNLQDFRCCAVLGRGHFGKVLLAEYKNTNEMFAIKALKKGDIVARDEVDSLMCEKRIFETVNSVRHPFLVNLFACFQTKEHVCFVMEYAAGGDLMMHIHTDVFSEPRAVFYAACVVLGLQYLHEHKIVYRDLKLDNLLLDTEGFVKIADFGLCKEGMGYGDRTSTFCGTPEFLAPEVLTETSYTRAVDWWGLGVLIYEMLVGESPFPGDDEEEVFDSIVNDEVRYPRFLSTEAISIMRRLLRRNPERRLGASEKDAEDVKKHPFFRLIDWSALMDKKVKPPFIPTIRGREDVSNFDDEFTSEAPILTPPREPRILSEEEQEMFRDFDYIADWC
T21 sequence (Q13131 whole entry): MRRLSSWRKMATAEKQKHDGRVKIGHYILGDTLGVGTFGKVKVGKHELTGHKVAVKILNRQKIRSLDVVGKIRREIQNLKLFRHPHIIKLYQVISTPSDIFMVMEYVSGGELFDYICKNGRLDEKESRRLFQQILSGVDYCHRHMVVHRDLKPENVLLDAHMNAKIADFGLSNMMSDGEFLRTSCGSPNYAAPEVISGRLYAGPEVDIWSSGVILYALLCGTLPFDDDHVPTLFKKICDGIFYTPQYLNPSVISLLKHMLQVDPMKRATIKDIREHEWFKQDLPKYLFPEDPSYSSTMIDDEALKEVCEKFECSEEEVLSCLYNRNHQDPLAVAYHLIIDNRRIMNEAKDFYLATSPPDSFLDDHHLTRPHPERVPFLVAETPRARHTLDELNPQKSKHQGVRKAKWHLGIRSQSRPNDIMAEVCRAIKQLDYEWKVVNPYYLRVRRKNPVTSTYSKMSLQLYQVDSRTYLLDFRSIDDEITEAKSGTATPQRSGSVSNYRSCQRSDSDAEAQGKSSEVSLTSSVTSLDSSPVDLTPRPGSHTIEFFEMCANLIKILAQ
T21 sequence (Q9Y478 whole entry partner): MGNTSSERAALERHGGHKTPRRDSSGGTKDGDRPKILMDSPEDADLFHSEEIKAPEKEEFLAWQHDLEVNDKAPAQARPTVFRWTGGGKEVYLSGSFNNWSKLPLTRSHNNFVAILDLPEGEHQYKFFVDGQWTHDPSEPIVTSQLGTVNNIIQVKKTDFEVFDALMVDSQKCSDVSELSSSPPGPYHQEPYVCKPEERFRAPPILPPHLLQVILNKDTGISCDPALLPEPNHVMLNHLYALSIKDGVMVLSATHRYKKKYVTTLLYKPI
T21 sequence (P54619 whole entry partner): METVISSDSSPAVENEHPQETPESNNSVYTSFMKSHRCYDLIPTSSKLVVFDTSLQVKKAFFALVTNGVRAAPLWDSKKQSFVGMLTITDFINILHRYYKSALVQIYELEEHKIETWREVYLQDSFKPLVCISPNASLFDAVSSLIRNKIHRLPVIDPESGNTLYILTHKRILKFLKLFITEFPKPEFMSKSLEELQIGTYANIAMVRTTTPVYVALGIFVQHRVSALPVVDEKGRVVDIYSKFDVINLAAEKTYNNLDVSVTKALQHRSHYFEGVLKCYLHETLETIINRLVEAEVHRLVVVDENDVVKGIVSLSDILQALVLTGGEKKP
T10 sequence (P07332 whole entry): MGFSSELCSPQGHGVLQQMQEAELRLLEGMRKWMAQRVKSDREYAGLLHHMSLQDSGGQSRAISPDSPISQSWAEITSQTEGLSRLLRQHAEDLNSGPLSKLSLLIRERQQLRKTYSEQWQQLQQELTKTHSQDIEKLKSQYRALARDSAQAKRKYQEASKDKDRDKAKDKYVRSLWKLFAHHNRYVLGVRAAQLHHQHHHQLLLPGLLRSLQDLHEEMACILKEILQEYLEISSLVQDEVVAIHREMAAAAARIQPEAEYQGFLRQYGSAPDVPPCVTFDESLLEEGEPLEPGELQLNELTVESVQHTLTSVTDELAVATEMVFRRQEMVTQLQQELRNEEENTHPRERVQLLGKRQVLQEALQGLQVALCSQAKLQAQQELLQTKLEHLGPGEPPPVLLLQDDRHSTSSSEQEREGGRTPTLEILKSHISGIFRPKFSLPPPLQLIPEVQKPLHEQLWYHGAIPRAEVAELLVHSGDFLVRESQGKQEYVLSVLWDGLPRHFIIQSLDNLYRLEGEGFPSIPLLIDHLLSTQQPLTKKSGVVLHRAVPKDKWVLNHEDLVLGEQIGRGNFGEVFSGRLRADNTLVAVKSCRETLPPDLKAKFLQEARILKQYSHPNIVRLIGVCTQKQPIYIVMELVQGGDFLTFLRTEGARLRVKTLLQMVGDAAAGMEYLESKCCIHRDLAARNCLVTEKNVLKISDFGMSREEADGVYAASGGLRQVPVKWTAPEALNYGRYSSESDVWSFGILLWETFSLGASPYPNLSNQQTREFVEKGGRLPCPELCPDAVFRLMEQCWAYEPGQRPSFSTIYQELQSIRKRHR
T2 sequence (P54760 16-987): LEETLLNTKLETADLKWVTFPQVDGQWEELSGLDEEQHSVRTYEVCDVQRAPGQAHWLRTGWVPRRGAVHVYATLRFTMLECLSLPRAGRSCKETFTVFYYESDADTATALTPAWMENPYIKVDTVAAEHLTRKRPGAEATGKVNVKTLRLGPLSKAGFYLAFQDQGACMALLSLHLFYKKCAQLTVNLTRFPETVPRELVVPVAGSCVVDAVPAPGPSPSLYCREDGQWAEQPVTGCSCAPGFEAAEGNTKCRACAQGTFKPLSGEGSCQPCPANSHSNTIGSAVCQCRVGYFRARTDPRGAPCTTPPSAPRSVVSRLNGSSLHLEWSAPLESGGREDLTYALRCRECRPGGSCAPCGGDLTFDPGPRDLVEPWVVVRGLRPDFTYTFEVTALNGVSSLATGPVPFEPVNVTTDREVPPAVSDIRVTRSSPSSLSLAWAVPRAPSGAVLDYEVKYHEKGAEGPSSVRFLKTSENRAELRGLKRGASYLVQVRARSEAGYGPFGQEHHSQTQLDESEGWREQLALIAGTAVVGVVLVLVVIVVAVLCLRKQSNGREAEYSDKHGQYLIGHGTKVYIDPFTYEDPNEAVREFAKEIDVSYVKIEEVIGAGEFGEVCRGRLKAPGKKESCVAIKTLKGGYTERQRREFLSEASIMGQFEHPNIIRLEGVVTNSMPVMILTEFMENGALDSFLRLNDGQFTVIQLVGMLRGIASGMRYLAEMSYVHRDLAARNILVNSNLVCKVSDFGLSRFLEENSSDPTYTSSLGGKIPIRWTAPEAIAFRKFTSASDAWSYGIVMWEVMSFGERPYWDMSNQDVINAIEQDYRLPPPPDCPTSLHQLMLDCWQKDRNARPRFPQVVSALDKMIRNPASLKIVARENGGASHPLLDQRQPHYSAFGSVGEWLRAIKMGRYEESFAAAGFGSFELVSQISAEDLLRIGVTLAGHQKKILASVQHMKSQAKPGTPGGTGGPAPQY
T27 sequence (P12931 whole entry): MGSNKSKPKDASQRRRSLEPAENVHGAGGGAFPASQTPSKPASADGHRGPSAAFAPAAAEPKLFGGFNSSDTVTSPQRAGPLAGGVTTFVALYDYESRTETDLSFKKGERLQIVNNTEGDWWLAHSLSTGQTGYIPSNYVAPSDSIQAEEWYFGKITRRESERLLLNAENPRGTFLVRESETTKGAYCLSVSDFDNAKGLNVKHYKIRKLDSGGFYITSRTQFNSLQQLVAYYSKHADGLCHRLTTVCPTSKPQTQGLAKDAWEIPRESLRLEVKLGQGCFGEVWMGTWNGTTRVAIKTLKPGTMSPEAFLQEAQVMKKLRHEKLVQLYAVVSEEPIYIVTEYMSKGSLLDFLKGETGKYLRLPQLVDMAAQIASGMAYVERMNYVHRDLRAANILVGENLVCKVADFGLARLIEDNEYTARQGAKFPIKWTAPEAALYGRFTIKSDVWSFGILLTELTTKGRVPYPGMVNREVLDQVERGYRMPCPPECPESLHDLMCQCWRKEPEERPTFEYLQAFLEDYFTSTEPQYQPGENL

remaining activity at 10 µM (HIPK1(h)): 90%
remaining activity at 10 µM (EphB4(h)): 56%
remaining activity at 10 µM (GSK3β(h)): 16%
remaining activity at 10 µM (MAPKAP-K2(h)): 69%
remaining activity at 10 µM (ZAP-70(h)): 138%
remaining activity at 10 µM (PKD2(h)): 26%
remaining activity at 10 µM (EGFR(h)): 108%
remaining activity at 10 µM (CaMKI(h)): 12%
remaining activity at 10 µM (ROCK-II(h)): 20%
remaining activity at 10 µM (Fes(h)): 27%
remaining activity at 10 µM (MST2(h)): 59%
remaining activity at 10 µM (CaMKIV(h)): 37%
remaining activity at 10 µM (NEK2(h)): 96%
remaining activity at 10 µM (PDGFRβ(h)): 104%
remaining activity at 10 µM (MEK1(h)): 14%
remaining activity at 10 µM (PRK2(h)): 31%
remaining activity at 10 µM (FGFR3(h)): 32%
remaining activity at 10 µM (JAK2(h)): 29%
remaining activity at 10 µM (CHK2(h)): 17%
remaining activity at 10 µM (LIMK1(h)): 30%
remaining activity at 10 µM (AMPKα1(h)): 22%
remaining activity at 10 µM (Rsk1(h)): 39%
remaining activity at 10 µM (CK2(h)): 37%
remaining activity at 10 µM (CK1δ(h)): 4%
remaining activity at 10 µM (CDK2/cyclinA(h)): 20%
remaining activity at 10 µM (PKBα(h)): 93%
remaining activity at 10 µM (cSRC(h)): 76%
remaining activity at 10 µM (TrkB(h)): 31%
SMILES: N#Cc1c[nH]c2nc(N)nc(-c3ccc(S(N)(=O)=O)cc3)c12 [Compound 48, 4-(2-Amino-5-cyano-7H-pyrrolo[2,3-d]pyrimidin-4-yl)benzenesulfonamide]
inhibition of TNFα-stimulated p65 (Ser536) phosphorylation [1]: inhibited; also recorded: small effect
